Reference: patent US5314890A, “1-7 disubstituted xanthine derivatives having antiasthmatic activity, their physiologically acceptable salts, pharmaceutical compositions containing them and process for their preparation” (priority 1990, dated 1994)
Where two headings read alike, the source gives them in different places.

Tests used:
male Swiss mice [1] = experiment: Chlordiazepoxide-induced sleep in mice; type: in vivo, mouse; conditions: 0.55 mmol/kg orally, 1 h before CDO (100 mg/kg i.p.); controls 27.1 ± 3.5 min; * p < 0.01
Description: Starved (20 h) male Swiss mice (20 g body weight) were injected with chlordiazepoxide (CDO) (100 mg/kg i.p.) and the duration of the induced sleep assessed. Sleeping time was defined as the time elapsing from the loss to the recovery of the righting reflex. The drugs were administered orally (0.55 mmol/kg) in a volume of 20 ml/kg 1 h before CDO. CNS excitation was valued as decrease in sleeping time (Table 4).

male Swiss mice [2] = experiment: Pentylentetrazol-induced lethality in mice; type: in vivo; conditions: 0.55 mmol/kg orally, 1 h before PTZ (60-75 mg/kg i.p.); controls 10%
Description: The drugs were administered orally (0.55 mmol/kg) in a volume of 20 ml/kg 1 h before PTZ. CNS excitation was valued as increase of PTZ mortality.

[3] = system: anaesthetized guinea pigs (sensitized); experiment: Antagonism toward ovoalbumin induced bronchomotor effects in anaesthetized guinea pigs; type: in vivo, guinea pig; conditions: 140 μmol/Kg i.v., 15 min before OA aerosol 0.5% for 20 s; for % inhibition of OA-induced bronchospasm referred to control group: N.A. = not active; for changes in pulmonary insufflation pressure after OA aerosol: controls 1.80 ± 0.15 KPa
Description: Antagonism toward ovoalbumin induced bronchomotor effects in anaesthetized guinea pigs.
Anaesthetized guinea pigs (sensitized with 100 mg/Kg s.c. plus 100 mg/Kg i.p. of ovoalbumin (OA) 14 days before tests) were used as described previously although bronchospasm was produced by OA intratracheal aerosol administration (0.5% for 20 s.).
Antibronchospastic activity was expressed as changes in pulmonary insufflation pressure (KPa) after OA aerosol administration and as inhibition percentage referred to control group.

sensitized guinea-pigs = experiment: Antagonism toward antigen-induced bronchospasm in sensitized guinea-pigs; type: in vivo, guinea pig; conditions: 0.55 mmol/kg orally, 1 hour before 0.5% ovalbumin aerosol; mean ± s.e.m.; control 8.4 ± 0.8; * p < 0.05
Description: Guinea-pigs (sensitized with 100 mg/kg s.c. plus 100 mg/kg i.p. of ovalbumin 14 days before) (Herxheimer and Streseman-Arch. Int. Pharmacodyn. Ther. 125, 265; 1960) were challenged by an aerosol of 0.5% ovalbumin, for a period of 10 sec. in a closed chamber.
In a first set of experiments, number of aerosol-induced bronchospasms was registered in control conditions or 1 hr after the oral administration of testing substances.

[4] = Acute oral toxicity in mice; conditions: mouse, in vivo, starved male Swiss mice, observed 10 days, Litchfield and Wilcoxon
Description: Starved (18 h) male Swiss mice (20 g weight) received drugs orally (0.2 ml/10 g weight).
Death and symptoms were evaluated LD50 was obtained according to Litchfield and Wilcoxon (J. Pharm. Expt. Ther. 96, 99, 1949).

[5] = system: isolated guinea pig bronchi; experiment: "In vitro" antibronchospastic activity in isolated guinea pig bronchi; type: cell-based; conditions: Cavia porcellus
Description: A steady tonic bronchomotor response was produced by administration of carbachol (0.3 μM) or capsaicin (0.3 μM, in presence of thiorphan 10 μM) on which a concentration-response curve with the various xanthine derivatives was carried out.

[6] = system: anaesthetized guinea pigs; experiment: Antagonism toward acetylcholine- and capsaicin-induced bronchomotor effects in anaesthetized guinea-pig; type: in vivo; conditions: 70 μmol/kg i.v., mean ± s.e.m.; for inhibition percentage of acetylcholine (Ach) induced bronchospasm: 15 min before acetylcholine 25 μg/kg; for inhibition percentage of capsaicin (Caps) induced bronchospasm: 15 min before capsaicin 2.5 μg/kg
Description: Anaesthetized guinea-pig were used D-Tubocurarine (3 mg/kg i.v.) was administered, and a mechanic ventilation (60 strokes/min) with a pump through a tracheal cannula was carried out Drugs were administered intravenously in a volume less than 0.5 ml/kg through a jugular cannula. Acetylcholine (25 μg/kg) or capsaicin (2.5 μg/kg) administration evoked a powerful and transient increase in tracheal insufflation pressure which was repeatable after 30 min. […] Antibronchospastic activity was expressed as inhibition percentage referred to the first increase of tracheal insufflation pressure.

[7] = Antibronchospastic / bronchodilatory activity, general statement (laboratory tests by the Applicant)
[8] = Goodman and Gilman, 1985; cited from earlier work
[9] = isolated guinea pig bronchi, capsaicin 0.3 μM with thiorphan 10 μM, 95% C.L. in brackets, read-out: IC50, capsaicin-induced tone
[10] = isolated guinea pig bronchi, carbachol 0.3 μM, 95% C.L. in brackets, read-out: IC50, carbachol-induced tone

Compound	CDO test sleeping-time (male Swiss mice [1]) [min]	PTZ test mortality rate (male Swiss mice [2]) [%]	% inhibition of OA-induced bronchospasm referred to control group [3] [%]	changes in pulmonary insufflation pressure after OA aerosol [3] [KPa]	number of bronchospasms recorded in 5 minutes (bronchospasm/min) (sensitized guinea-pigs)	LD50 at 240 h [4] [mg/kg]	IC50 [5, 9] [µM]	IC50 [5, 10] [µM]	inhibition percentage of acetylcholine (Ach) induced bronchospasm [6] [%]	inhibition percentage of capsaicin (Caps) induced bronchospasm [6] [%]	antibronchospastic / bronchodilatory activity (in words) [7]	IC50 ([5]; read-out: IC50, capsaicin-induced tone) [µM]	IC50 ([5]; read-out: IC50, carbachol-induced tone) [µM]	side effects (in words) [8]
Cn1c(=O)[nH]c2ncn(CC(C)(C)O)c2c1=O [1-methyl-7-(2-methyl-2-hydroxy-propyl)-xanthine]	64.2 ± 12.8	0	36	1.15 ± 0.15										
CC(C)Cn1cnc2[nH]c(=O)n(C)c(=O)c21 [1-methyl-7-isobutyl-xanthine]	26.1 ± 3.3	20	86	0.25 ± 0.08	5.0 ± 1.1	303	21	31	54 ± 5	52 ± 3				
Cn1c(=O)[nH]c2ncn(C)c2c1=O [Paraxanthine, 1,7-dimethyl-xanthine]	2.3 ± 1.5	82									does not show any significant antibronchospastic activity	82	135	
Cn1c(=O)c2[nH]cnc2n(C)c1=O [Theophylline, 1,3-dimethyl-xanthine, reference compound]	7.8 ± 2.2				4.6 ± 1.2		40	92	51 ± 8	51 ± 7				side effects on the cardiovascular system and on the central nervous system
